Drawing on patent publication US11485742B2, “2-azaspiro[3.4]octane derivatives as M4 agonists” (NOVARTIS AG, priority 2019, dated 2022), this text covers Emax and EC50 for 18 compounds.

Test [1] deals with T1, human cloned CHRM4 receptor (Homo sapiens, UniProt P08173).
T1 construct: expressed in transfected cells; host or cells: CHO-K1 (M4_CHO)
T1 sequence (P08173 1-479): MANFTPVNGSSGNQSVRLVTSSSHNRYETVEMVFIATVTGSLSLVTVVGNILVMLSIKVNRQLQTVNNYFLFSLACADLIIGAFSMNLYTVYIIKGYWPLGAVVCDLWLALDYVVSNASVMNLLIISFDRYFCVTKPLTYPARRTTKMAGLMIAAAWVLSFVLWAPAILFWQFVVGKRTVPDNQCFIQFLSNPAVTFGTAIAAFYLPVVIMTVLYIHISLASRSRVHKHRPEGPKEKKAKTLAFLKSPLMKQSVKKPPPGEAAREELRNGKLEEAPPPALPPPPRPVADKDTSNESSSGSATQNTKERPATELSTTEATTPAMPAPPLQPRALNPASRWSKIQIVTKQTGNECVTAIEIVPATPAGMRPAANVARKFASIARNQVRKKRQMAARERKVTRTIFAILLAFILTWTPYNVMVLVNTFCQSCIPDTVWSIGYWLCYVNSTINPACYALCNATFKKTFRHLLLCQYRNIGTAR
As to the kind of experiment: CHRM4 Ca++ Flux Assay (M4_CHO cells, agonist mode). It is filed as cell-based. Conditions: for Emax: Percent Activity (PA), read-out: M4 FDSS PA %; for EC50: geometric mean if tested more than once, read-out: M4 FDSS EC50. In outline:
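CHO-K1 cells stably expressing human M4 were dye-loaded, then held 60 min at RT in Ca/Mg-free HBSS buffer with 20 μM ATP. Ca++ traces were recorded over 3 min after an 11-point compound series in triplicate, agonist mode, with a four-parameter fit. Percent activity is relative to the carbachol EC100; repeat tests are geometric means.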

In test [2] the target is T2, Cloned human M1 receptor (CHRM1) (Homo sapiens, UniProt P11229).
T2 construct: expressed in transfected cells; host or cells: HEK293
T2 sequence (P11229 1-460): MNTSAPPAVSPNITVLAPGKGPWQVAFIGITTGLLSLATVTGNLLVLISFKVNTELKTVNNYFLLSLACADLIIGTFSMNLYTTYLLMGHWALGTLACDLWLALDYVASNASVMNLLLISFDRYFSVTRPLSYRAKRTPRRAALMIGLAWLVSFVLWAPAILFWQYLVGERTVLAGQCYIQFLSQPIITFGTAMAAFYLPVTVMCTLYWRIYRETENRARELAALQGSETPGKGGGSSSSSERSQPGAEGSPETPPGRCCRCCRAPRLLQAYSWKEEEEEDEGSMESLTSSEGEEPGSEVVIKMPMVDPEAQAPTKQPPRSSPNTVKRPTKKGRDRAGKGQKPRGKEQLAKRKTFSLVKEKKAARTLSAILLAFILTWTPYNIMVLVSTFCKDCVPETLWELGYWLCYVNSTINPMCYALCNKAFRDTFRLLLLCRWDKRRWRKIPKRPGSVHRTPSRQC
As to the kind of experiment: CHRM1 Ca++ Flux Assay (HEK293 M1 cells, agonist mode). The class given is cell-based. Conditions: for Emax: Percent Activity (PA), read-out: M1 FDSS PA %; for EC50: geometric mean if tested more than once, read-out: M1 FDSS EC50. In a few lines:
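HEK293 cells stably expressing human M1 were loaded with Ca++ dye, then given compounds (11-point dose, triplicate) in HBSS −Ca/−Mg, 20 mM HEPES. Ca++ flux was read over 3 min (agonist mode). Four-parameter curves were fitted, with activity as percent of carbachol EC100.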

For orientation: EC50 means the concentration at which the effect is half-maximal. As for `Fc1ccc(OC[C@H]2CCCO2)c(C2CCN([C@@H]3COC4(C3)CN(c3nnco3)C4)CC2)c1` [Example 2M, (S)-7-(4-(5-fluoro-2-(((R)-tetrahydrofuran-2-yl)methoxy)phenyl)piperidin-1-yl)-2-(1,3,4-oxadiazol-2-yl)-5-oxa-2-azaspiro[3.4]octane], in test [1], the Emax was found to be 58% and the EC50 was 145 nM. Besides, in test [2], the Emax was determined as 7% and the EC50 came to 3570 nM.

Regarding `Cc1nnc(-c2ccccc2C2CCN([C@@H]3COC4(C3)CN(c3nnco3)C4)CC2)o1` [Example 1Y, (S)-7-(4-(2-(5-methyl-1,3,4-oxadiazol-2-yl)phenyl)piperidin-1-yl)-2-(1,3,4-oxadiazol-2-yl)-5-oxa-2-azaspiro[3.4]octane], the Emax stood at 86% in test [1] and 107% in test [2]. For the same compound, the EC50 in test [1] was 112 nM; in test [2], 579 nM.

Turning to `Fc1ccc(OC2COC2)c(C2CCN([C@@H]3COC4(C3)CN(c3ncon3)C4)CC2)c1` [Example 6B, (S)-7-(4-(5-fluoro-2-(oxetan-3-yloxy)phenyl)piperidin-1-yl)-2-(1,2,4-oxadiazol-3-yl)-5-oxa-2-azaspiro[3.4]octane], the Emax in test [1] was 79%; in test [2], 88%. Also, the concentration giving a half-maximal response (EC50) in test [1] came to 8 nM; in test [2] it was 490 nM.

For the compound `Cc1cc(COc2ccc(F)cc2C2CCN([C@@H]3COC4(C3)CN(c3nnco3)C4)CC2)on1` [Example 2G, (S)-7-(4-(5-fluoro-2-((3-methylisoxazol-5-yl)methoxy)phenyl)piperidin-1-yl)-2-(1,3,4-oxadiazol-2-yl)-5-oxa-2-azaspiro[3.4]octane], in test [1], the Emax came to 86% and the EC50 was 3 nM. Moreover, in test [2], the Emax came to 89% and the EC50 turned out to be 289 nM.

With `COC(C)(C)CCOc1ccc(F)cc1C1CCN([C@@H]2COC3(C2)CN(c2nnco2)C3)CC1` [Example 1K, (S)-7-(4-(5-fluoro-2-(3-methoxy-3-methylbutoxy)phenyl)piperidin-1-yl)-2-(1,3,4-oxadiazol-2-yl)-5-oxa-2-azaspiro[3.4]octane], in test [1], the Emax was determined as 58% and the 50% effective concentration (EC50) stood at 97 nM. Besides, in test [2], the Emax amounted to 58% and the EC50 is 1590 nM.

Take `COc1ccccc1C1CCN([C@@H]2COC3(C2)CN(c2nnco2)C3)CC1` [Example 1Q, (S)-7-(4-(2-methoxyphenyl)piperidin-1-yl)-2-(1,3,4-oxadiazol-2-yl)-5-oxa-2-azaspiro[3.4]octane]: the Emax came to 79% in test [1] and 81% in test [2]. Further, the EC50 turned out to be 52 nM in test [1] and 678 nM in test [2].

Consider `Fc1cc(O[C@@H]2CCOC2)c(C2CCN([C@@H]3COC4(C3)CN(c3nnco3)C4)CC2)cc1F` [Example 1R, (S)-7-(4-(4,5-difluoro-2-(((R)-tetrahydrofuran-3-yl)oxy)phenyl)piperidin-1-yl)-2-(1,3,4-oxadiazol-2-yl)-5-oxa-2-azaspiro[3.4]octane], for which, in test [1], the Emax was 77% and the concentration giving a half-maximal response (EC50) was found to be 41 nM. In test [2], the Emax turned out to be 76% and the EC50 worked out at 670 nM.

For the compound `CCC1(COc2ccc(F)cc2C2CCN([C@@H]3COC4(C3)CN(c3nnco3)C4)CC2)COC1` [Example 2P, (S)-7-(4-(2-((3-ethyloxetan-3-yl)methoxy)-5-fluorophenyl)piperidin-1-yl)-2-(1,3,4-oxadiazol-2-yl)-5-oxa-2-azaspiro[3.4]octane], in test [1], the Emax worked out at 75% and the half-maximal effective concentration (EC50) worked out at 85 nM. In test [2], the Emax turned out to be 71% and the EC50 came out at 2080 nM.

As to `Fc1ccc(OC2CC3(COC3)C2)c(C2CCN([C@@H]3COC4(C3)CN(c3nnco3)C4)CC2)c1` [Example 2L, (S)-7-(4-(2-((2-oxaspiro[3.3]heptan-6-yl)oxy)-5-fluorophenyl)piperidin-1-yl)-2-(1,3,4-oxadiazol-2-yl)-5-oxa-2-azaspiro[3.4]octane], in test [1], the Emax was found to be 81% and the EC50 turned out to be 50 nM. In addition, in test [2], the Emax was 47% and the concentration for a half-maximal effect (EC50) came to 2220 nM.

In the case of `Fc1ccc(OCC2COC2)c(C2CCN([C@@H]3COC4(C3)CN(c3nnco3)C4)CC2)c1` [Example 2H, (S)-7-(4-(5-fluoro-2-(oxetan-3-ylmethoxy)phenyl)piperidin-1-yl)-2-(1,3,4-oxadiazol-2-yl)-5-oxa-2-azaspiro[3.4]octane], in test [1], the Emax is 88% and the EC50 was 6 nM. Moreover, in test [2], the Emax was 101% and the half-maximal effective concentration (EC50) turned out to be 542 nM.

With `Fc1ccc(OCC2COC2)c(C2CCN([C@@H]3COC4(C3)CN(c3nncs3)C4)CC2)c1` [Example 2A, (S)-7-(4-(5-fluoro-2-(oxetan-3-ylmethoxy)phenyl)piperidin-1-yl)-2-(1,3,4-thiadiazol-2-yl)-5-oxa-2-azaspiro[3.4]octane], in test [1], the Emax is 79% and the half-maximal effective concentration (EC50) was 24 nM. In test [2], the Emax worked out at 103% and the concentration giving a half-maximal response (EC50) was 553 nM.

Regarding `CCc1nnc(COc2ccc(F)cc2C2CCN([C@@H]3COC4(C3)CN(c3nnco3)C4)CC2)s1` [Example 2T, (S)-7-(4-(2-((5-ethyl-1,3,4-thiadiazol-2-yl)methoxy)-5-fluorophenyl)piperidin-1-yl)-2-(1,3,4-oxadiazol-2-yl)-5-oxa-2-azaspiro[3.4]octane], in test [1], the Emax worked out at 89% and the EC50 was 2 nM. In addition, in test [2], the Emax was determined as 89% and the EC50 stood at 63 nM.

As for `Cc1nnc(COc2ccc(F)cc2C2CCN([C@@H]3COC4(C3)CN(c3nnco3)C4)CC2)o1` [Example 2F, (S)-7-(4-(5-fluoro-2-((5-methyl-1,3,4-oxadiazol-2-yl)methoxy)phenyl)piperidin-1-yl)-2-(1,3,4-oxadiazol-2-yl)-5-oxa-2-azaspiro[3.4]octane], in test [1], the Emax came to 90% and the EC50 was 1 nM. In test [2], the Emax turned out to be 103% and the concentration for a half-maximal effect (EC50) was determined as 61 nM.

For `CC(C)(O)COc1ccccc1C1CCN([C@@H]2COC3(C2)CN(c2ncns2)C3)CC1` [Example 5Y, (S)-1-(2-(1-(2-(1,2,4-thiadiazol-5-yl)-5-oxa-2-azaspiro[3.4]octan-7-yl)piperidin-4-yl)phenoxy)-2-methylpropan-2-ol], the Emax is 64% in test [1] and 47% in test [2]. In addition, the results for the EC50 in test [1] and in test [2] were 109 nM and 1990 nM, respectively.

Take `c1ccc(C2CCN([C@@H]3COC4(C3)CN(c3nnco3)C4)CC2)c(O[C@@H]2CCOC2)c1` [Example 1O, (S)-2-(1,3,4-oxadiazol-2-yl)-7-(4-(2-(((R)-tetrahydrofuran-3-yl)oxy)phenyl)piperidin-1-yl)-5-oxa-2-azaspiro[3.4]octane]: in test [1], the Emax turned out to be 89% and the 50% effective concentration (EC50) came out at 26 nM. For the same compound, in test [2], the Emax was 69% and the EC50 was 1350 nM.

On to `c1ccc(C2CCN([C@@H]3COC4(C3)CN(c3nnco3)C4)CC2)c(OC2COC2)c1` [Example 1P, (S)-2-(1,3,4-oxadiazol-2-yl)-7-(4-(2-(oxetan-3-yloxy)phenyl)piperidin-1-yl)-5-oxa-2-azaspiro[3.4]octane], for which, in test [1], the Emax came to 94% and the EC50 is 28 nM. In test [2], the Emax was found to be 76% and the EC50 came out at 439 nM.

On to `OC1(COc2ccc(F)cc2C2CCN([C@@H]3COC4(C3)CN(c3nnco3)C4)CC2)COC1` [Example 2U, (S)-3-((2-(1-(2-(1,3,4-oxadiazol-2-yl)-5-oxa-2-azaspiro[3.4]octan-7-yl)piperidin-4-yl)-4-fluorophenoxy)methyl)oxetan-3-ol], for which, in test [1], the Emax came out at 86% and the EC50 was determined as 12 nM. For the same compound, in test [2], the Emax turned out to be 81% and the EC50 worked out at 223 nM.

For the compound `CC(C)(O)CCOc1cc(F)ccc1C1CCN([C@@H]2COC3(C2)CN(c2nnco2)C3)CC1` [Example 1T, (S)-4-(2-(1-(2-(1,3,4-oxadiazol-2-yl)-5-oxa-2-azaspiro[3.4]octan-7-yl)piperidin-4-yl)-5-fluorophenoxy)-2-methylbutan-2-ol], in test [1], the Emax turned out to be 45% and the EC50 is 157 nM. Also, in test [2], the Emax amounted to 74% and the EC50 turned out to be 640 nM.
